Settings: Liquid; for mass density: isochoric method; for viscosity: Falling or rolling sphere viscometry

CCC(C)C(C)C (stereo unspecified) [2,3-dimethylpentane]
Settings	mass density [kg/m3]	viscosity [mPa·s]
278.15 K, 100 kPa	707.6	–
278.15 K, 1000 kPa	708.3	–
278.15 K, 5000 kPa	711.6	–
278.15 K, 10000 kPa	715.5	–
278.15 K, 15000 kPa	719.1	–
278.15 K, 20000 kPa	722.7	–
278.15 K, 25000 kPa	726	–
278.15 K, 30000 kPa	729.2	–
278.15 K, 35000 kPa	732.2	–
278.15 K, 40000 kPa	735.2	–
278.15 K, 45000 kPa	738	–
283.15 K, 100 kPa	703.2	–
283.15 K, 1000 kPa	704	–
283.15 K, 5000 kPa	707.4	–
283.15 K, 10000 kPa	711.5	–
283.15 K, 15000 kPa	715.3	–
283.15 K, 20000 kPa	718.9	–
283.15 K, 25000 kPa	722.3	–
283.15 K, 30000 kPa	725.6	–
283.15 K, 35000 kPa	728.7	–
283.15 K, 40000 kPa	731.7	–
283.15 K, 45000 kPa	734.6	–
293.15 K, 100 kPa	694.9	–
293.15 K, 1000 kPa	695.7	–
293.15 K, 5000 kPa	699.3	–
293.15 K, 10000 kPa	703.6	–
293.15 K, 15000 kPa	707.7	–
293.15 K, 20000 kPa	711.5	–
293.15 K, 25000 kPa	715.1	–
293.15 K, 30000 kPa	718.6	–
293.15 K, 35000 kPa	721.9	–
293.15 K, 40000 kPa	725	–
293.15 K, 45000 kPa	728	–
303.15 K, 100 kPa	686.3	0.356
303.15 K, 1000 kPa	687.2	0.36
303.15 K, 5000 kPa	691.1	0.377
303.15 K, 10000 kPa	695.7	0.398
303.15 K, 15000 kPa	700	0.419
303.15 K, 20000 kPa	704.1	0.441
303.15 K, 25000 kPa	707.9	0.462
303.15 K, 30000 kPa	711.6	0.485
303.15 K, 35000 kPa	715	0.507
303.15 K, 40000 kPa	718.3	0.53
303.15 K, 45000 kPa	721.5	0.553
303.15 K, 50000 kPa	–	0.576
303.15 K, 55000 kPa	–	0.6
303.15 K, 60000 kPa	–	0.624
313.15 K, 100 kPa	677.6	0.324
313.15 K, 1000 kPa	678.6	0.328
313.15 K, 5000 kPa	682.8	0.343
313.15 K, 10000 kPa	687.7	0.361
313.15 K, 15000 kPa	692.3	0.38
313.15 K, 20000 kPa	696.6	0.399
313.15 K, 25000 kPa	700.7	0.418
313.15 K, 30000 kPa	704.5	0.438
313.15 K, 35000 kPa	708.2	0.458
313.15 K, 40000 kPa	711.6	0.479
313.15 K, 45000 kPa	715	0.5
313.15 K, 50000 kPa	–	0.522
313.15 K, 55000 kPa	–	0.544
313.15 K, 60000 kPa	–	0.566
323.15 K, 100 kPa	668.7	0.29
323.15 K, 1000 kPa	669.8	0.294
323.15 K, 5000 kPa	674.3	0.308
323.15 K, 10000 kPa	679.6	0.326
323.15 K, 15000 kPa	684.5	0.344
323.15 K, 20000 kPa	689.1	0.362
323.15 K, 25000 kPa	693.4	0.381
323.15 K, 30000 kPa	697.5	0.399
323.15 K, 35000 kPa	701.3	0.418
323.15 K, 40000 kPa	705	0.437
323.15 K, 45000 kPa	708.4	0.457
323.15 K, 50000 kPa	–	0.476
323.15 K, 55000 kPa	–	0.496
323.15 K, 60000 kPa	–	0.517
333.15 K, 100 kPa	659.7	0.262
333.15 K, 1000 kPa	660.9	0.266
333.15 K, 5000 kPa	665.8	0.28
333.15 K, 10000 kPa	671.5	0.298
333.15 K, 15000 kPa	676.7	0.316
333.15 K, 20000 kPa	681.6	0.334
333.15 K, 25000 kPa	686.2	0.352
333.15 K, 30000 kPa	690.5	0.369
333.15 K, 35000 kPa	694.5	0.387
333.15 K, 40000 kPa	698.3	0.404
333.15 K, 45000 kPa	702	0.422
333.15 K, 50000 kPa	–	0.439
333.15 K, 55000 kPa	–	0.457
333.15 K, 60000 kPa	–	0.474
343.15 K, 100 kPa	650.6	0.244
343.15 K, 1000 kPa	651.9	0.247
343.15 K, 5000 kPa	657.2	0.26
343.15 K, 10000 kPa	663.3	0.276
343.15 K, 15000 kPa	668.9	0.292
343.15 K, 20000 kPa	674.1	0.309
343.15 K, 25000 kPa	678.9	0.325
343.15 K, 30000 kPa	683.5	0.342
343.15 K, 35000 kPa	687.7	0.359
343.15 K, 40000 kPa	691.7	0.376
343.15 K, 45000 kPa	695.5	0.393
343.15 K, 50000 kPa	–	0.41
343.15 K, 55000 kPa	–	0.428
343.15 K, 60000 kPa	–	0.445
353.15 K, 100 kPa	641.3	0.232
353.15 K, 1000 kPa	642.7	0.234
353.15 K, 5000 kPa	648.5	0.246
353.15 K, 10000 kPa	655.1	0.261
353.15 K, 15000 kPa	661.1	0.276
353.15 K, 20000 kPa	666.6	0.291
353.15 K, 25000 kPa	671.7	0.306
353.15 K, 30000 kPa	676.5	0.321
353.15 K, 35000 kPa	680.9	0.336
353.15 K, 40000 kPa	685.1	0.35
353.15 K, 45000 kPa	689.1	0.365
353.15 K, 50000 kPa	–	0.381
353.15 K, 55000 kPa	–	0.395
353.15 K, 60000 kPa	–	0.411

Cc1ccccc1 [toluene]
viscosity [mPa·s]
Settings	303.15 K	313.15 K	323.15 K	333.15 K	343.15 K	353.15 K
100 kPa	0.525	0.469	0.422	0.382	0.349	0.32
1000 kPa	0.526	0.474	0.427	0.386	0.351	0.32
5000 kPa	0.544	0.487	0.439	0.397	0.362	0.331
10000 kPa	0.568	0.509	0.458	0.413	0.376	0.344
15000 kPa	0.593	0.529	0.476	0.43	0.391	0.359
20000 kPa	0.617	0.55	0.495	0.446	0.406	0.373
25000 kPa	0.64	0.57	0.514	0.463	0.421	0.387
30000 kPa	0.662	0.59	0.533	0.48	0.437	0.401
35000 kPa	0.685	0.61	0.552	0.497	0.453	0.415
40000 kPa	0.707	0.63	0.572	0.515	0.469	0.429
45000 kPa	0.729	0.651	0.592	0.533	0.485	0.443
50000 kPa	0.752	0.671	0.612	0.551	0.502	0.458
55000 kPa	0.774	0.693	0.633	0.571	0.52	0.473
60000 kPa	0.797	0.715	0.654	0.59	0.537	0.488

CCCCCCC [heptane]
viscosity [mPa·s]
Settings	303.15 K	313.15 K	323.15 K	333.15 K	343.15 K	353.15 K
100 kPa	0.368	0.33	0.303	0.273	0.245	0.231
1000 kPa	0.371	0.334	0.306	0.276	0.247	0.233
5000 kPa	0.387	0.348	0.319	0.289	0.26	0.246
10000 kPa	0.408	0.368	0.336	0.306	0.277	0.262
15000 kPa	0.429	0.388	0.354	0.323	0.294	0.278
20000 kPa	0.45	0.407	0.371	0.34	0.31	0.293
25000 kPa	0.471	0.427	0.389	0.357	0.326	0.307
30000 kPa	0.492	0.446	0.406	0.374	0.341	0.322
35000 kPa	0.514	0.465	0.424	0.39	0.357	0.336
40000 kPa	0.535	0.484	0.442	0.407	0.372	0.349
45000 kPa	0.556	0.503	0.461	0.423	0.387	0.361
50000 kPa	0.578	0.522	0.479	0.439	0.402	0.374
55000 kPa	0.6	0.542	0.498	0.456	0.416	0.386
60000 kPa	0.622	0.562	0.517	0.472	0.431	0.397

Source: the NIST ThermoML archive (doi:10.1021/je049662k)
